From BindingDB's records for doi:10.1016/j.chembiol.2017.02.003 (University of Colorado, 2017)

Experiments:
Experiment in all cases: Caspase Catalytic Activity Assay
Conditions in all cases: pH 7.4
Caspase-1 = molecular target: T1, Caspase-1 (Homo sapiens, UniProt P29466)
T1 sequence (P29466 whole entry): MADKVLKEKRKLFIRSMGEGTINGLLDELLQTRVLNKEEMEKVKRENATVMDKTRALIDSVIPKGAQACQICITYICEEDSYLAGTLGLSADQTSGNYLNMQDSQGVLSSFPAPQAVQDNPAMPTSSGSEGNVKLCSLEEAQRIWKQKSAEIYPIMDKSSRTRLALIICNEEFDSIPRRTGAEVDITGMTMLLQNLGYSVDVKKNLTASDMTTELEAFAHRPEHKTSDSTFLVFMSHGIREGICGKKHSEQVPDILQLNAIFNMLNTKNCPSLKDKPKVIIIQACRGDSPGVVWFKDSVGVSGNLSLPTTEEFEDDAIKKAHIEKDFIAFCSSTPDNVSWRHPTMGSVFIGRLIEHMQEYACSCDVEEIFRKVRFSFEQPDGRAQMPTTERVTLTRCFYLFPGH
Procedure: (§1) ECB (Enzo Caspase Buffer): 50 mM HEPES (pH 7.4), 100 mM NaCl, 0.5% Tween 20, 10 mM DTT, and 10% glycerol; SCB (Standard Caspase Buffer): 20 mM PIPES (pH 7.5), 100 mM NaCl, 1 mM EDTA, 10 mM DTT, and 10% sucrose; HCB (High-Citrate Buffer): 50 mM Tris-HCl (pH 7.5), 1 M sodium citrate, 10 mM DTT, and 10% sucrose. Activity was measured as the change in luminescent signal for at least 30 min.

Caspase-3 = molecular target: T2, Caspase-3 (Homo sapiens, UniProt P42574)
T2 sequence (P42574 whole entry): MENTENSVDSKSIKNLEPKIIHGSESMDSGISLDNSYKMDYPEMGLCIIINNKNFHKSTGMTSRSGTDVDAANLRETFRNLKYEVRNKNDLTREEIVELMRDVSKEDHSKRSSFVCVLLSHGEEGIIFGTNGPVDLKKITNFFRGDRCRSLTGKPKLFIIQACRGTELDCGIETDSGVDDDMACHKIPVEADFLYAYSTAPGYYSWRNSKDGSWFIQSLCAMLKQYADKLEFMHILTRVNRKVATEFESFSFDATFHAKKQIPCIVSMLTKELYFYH
Procedure: as §1

Caspase-4 = molecular target: T3, Caspase-4 (Homo sapiens, UniProt P49662)
T3 sequence (P49662 whole entry): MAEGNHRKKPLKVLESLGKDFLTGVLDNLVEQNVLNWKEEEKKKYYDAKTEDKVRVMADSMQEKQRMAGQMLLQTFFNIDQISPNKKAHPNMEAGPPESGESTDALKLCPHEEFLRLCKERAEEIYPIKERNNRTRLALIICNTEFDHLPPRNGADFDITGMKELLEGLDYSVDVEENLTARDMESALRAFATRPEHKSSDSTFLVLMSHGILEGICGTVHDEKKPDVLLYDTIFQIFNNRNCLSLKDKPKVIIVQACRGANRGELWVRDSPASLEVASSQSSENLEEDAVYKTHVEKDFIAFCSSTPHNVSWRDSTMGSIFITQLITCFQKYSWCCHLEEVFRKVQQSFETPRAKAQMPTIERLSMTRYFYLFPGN
Procedure: as §1

Caspase-5 = molecular target: T4, Caspase-5 (Homo sapiens, UniProt P51878)
T4 sequence (P51878 whole entry): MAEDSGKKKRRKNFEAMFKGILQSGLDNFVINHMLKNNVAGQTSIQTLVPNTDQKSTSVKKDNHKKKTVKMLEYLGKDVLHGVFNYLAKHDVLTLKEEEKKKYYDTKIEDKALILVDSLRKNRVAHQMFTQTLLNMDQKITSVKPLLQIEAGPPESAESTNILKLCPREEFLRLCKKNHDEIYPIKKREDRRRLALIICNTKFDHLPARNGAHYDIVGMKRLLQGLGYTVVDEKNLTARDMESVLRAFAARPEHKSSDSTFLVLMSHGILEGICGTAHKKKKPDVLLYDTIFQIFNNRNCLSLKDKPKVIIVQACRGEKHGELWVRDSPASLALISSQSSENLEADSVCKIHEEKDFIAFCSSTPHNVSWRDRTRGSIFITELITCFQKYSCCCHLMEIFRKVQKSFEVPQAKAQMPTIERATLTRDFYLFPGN
Procedure: as §1

Caspase-9 = molecular target: T5, Caspase-9 (Homo sapiens, UniProt P55211)
T5 sequence (P55211 whole entry): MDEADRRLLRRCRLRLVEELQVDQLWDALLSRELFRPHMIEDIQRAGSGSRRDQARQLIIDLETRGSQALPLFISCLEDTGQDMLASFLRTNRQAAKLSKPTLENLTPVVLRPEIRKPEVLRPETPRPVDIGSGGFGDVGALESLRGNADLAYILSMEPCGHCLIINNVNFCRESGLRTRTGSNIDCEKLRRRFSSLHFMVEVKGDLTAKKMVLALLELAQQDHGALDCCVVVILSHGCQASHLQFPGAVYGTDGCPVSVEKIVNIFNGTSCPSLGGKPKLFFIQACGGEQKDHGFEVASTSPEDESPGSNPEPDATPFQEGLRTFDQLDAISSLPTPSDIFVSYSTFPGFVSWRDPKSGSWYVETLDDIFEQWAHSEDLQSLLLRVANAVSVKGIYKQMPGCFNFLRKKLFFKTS
Procedure: as §1

| SMILES | IC50 (Caspase-1) [nM] | IC50 (Caspase-3) [nM] | IC50 (Caspase-4) [nM] | IC50 (Caspase-5) [nM] | IC50 (Caspase-9) [nM] |
| --- | --- | --- | --- | --- | --- |
| CC(C(=O)O)c1cccc(C(=O)c2ccccc2)c1 (stereo not given) [2-(3-benzoylphenyl)propanoic acid] | > 66000 | 50000 | 10000 | 10000 | 10000 |
| O=C(O)Cc1ccc(-c2ccccc2)cc1 [Felbinac] | 35000 | 14000 | 2000 | 2600 | 1800 |
| COc1ccc2cc([C@H](C)C(=O)O)ccc2c1 [(2S)-2-(6-methoxynaphthalen-2-yl)propanoic acid] | > 66000 | 55000 | 15000 | 11000 | 10000 |

The next molecules have a lower IC50 (Caspase-1) than those just listed; values first:

| IC50 (Caspase-1) [nM] | IC50 (Caspase-3) [nM] | IC50 (Caspase-4) [nM] | IC50 (Caspase-5) [nM] | IC50 (Caspase-9) [nM] | SMILES |
| --- | --- | --- | --- | --- | --- |
| 18000 | 2500 | 860 | 1000 | 850 | O=C(c1ccccc1)c1ccc2n1CCC2C(=O)O (stereo not given) [Toradol] |
| 4400 | 1200 | 570 | 870 | 760 | O=C(O)CCC(=O)c1ccc(-c2ccccc2)cc1 [3-(4-biphenylylcarbonyl)propionic acid] |
| 3600 | 1400 | 570 | 590 | 300 | CC(C(=O)O)c1ccc(N2Cc3ccccc3C2=O)cc1 (stereo not drawn) [(+)-2-(4-(1-oxoisoindolin-2-yl)phenyl)propanoic acid] |
| 1600 | 810 | 380 | 470 | 2200 | CC(C(=O)O)c1ccc(C(=O)c2ccccc2)s1 (stereo not given) [Tiaprofenic acid] |
